Values of other authors, collected in patent US20060257434A1, “Production of emulsions of pharmaceutical compositions” (priority 2005, published 2006).

Conditions: over a physiological pH range

For `CCCn1c(=O)c2[nH]c(C34CC5CC(CC3C5)C4)nc2n(CCC)c1=O` [KW-3902, 8-(3-noradamantyl)-1,3-dipropylxanthine], which solubility is on record?
The solubility was “less than 1 μg/ml”.
